Values quoted from earlier work, collected in patent publication US8092783B2, “Gadolinium containing prussian blue nanoparticles as nontoxic MRI contrast agents having high relaxivity” (Kent State University, priority 2009, dated 2012).

Details: magnetic field strength 1.5 Tesla; commercial or literature agents

SMILES: CNC[C@H](O)[C@@H](O)[C@H](O)[C@H](O)CO.CNC[C@H](O)[C@@H](O)[C@H](O)[C@H](O)CO.O=C([O-])CN(CCN(CC(=O)[O-])CC(=O)O)CCN(CC(=O)[O-])CC(=O)O.[Gd+3] [Magnevist@]
- relaxivity r1: 4.1 mM⁻¹ s⁻¹
